Source: US6632979B2, “Rodent HER2 tumor model” (Genentech, Inc., priority 2000, dated 2003)
“Also recorded” adds a separate entry of the source.

Experiments:
[1] = tested on: MMTV-HER2-transgenic tumors transplanted into the mammary fat pad of FVB mice; assay: Transplanted MMTV-HER2-transgenic tumor model in FVB mice; assay type: in vivo, mouse
From the text: Two mm3 pieces of MMTV-HER2-transgenic tumors were transplanted into the mammary fat pad of FVB mice.
All animals received five doses.
The tumor was surgically resected under aseptic conditions and minced into small pieces, 2 mm^3, which were then transplanted into the mammary fat pad of wild-type FVB female mice.

[2] = tested on: tumors from the HER2 transgenic cell line HER-3081-3-10; assay: Growth of tumors from cell line HER-3081-3-10 in mice; assay type: in vivo, mouse; conditions: 4D5, 7C2 30 mg/kg intraperitoneally for 4 weeks; taxol 15.6 mg/kg subcutaneously daily for 5 days; tumors 100 mm^3, FIG. 16
Description: The efficacy of taxol and anti-HER2 monclonal antibodies 7C2 and 4D5 in preventing tumor growth was assessed (FIG. 16). At day 0, 6-8 week old FVP mice were innoculated under the skin with 2 million tumor cells from cell line HER-3081-3-10. When the tumors reached 100 mm^3 the mice were separated into 5 groups with 9 animals per group. Antibodies 4D5 and 7C2 were given intraperitoneally at 30 mg/kg for 4 weeks. Taxol was given subcutaneously daily for 5 days at 15.6 mg/kg. Tumors were measured during the study at regular intervals.

[3] = tested on: HER-5, HER-3081-3-4, HER-3081-3-10 and HER-3081-3-19 cells; assay: Mitogen responsiveness of HER2 transgenic cell lines, crystal violet; assay type: cell-based, mouse; conditions: heregulin 0.005-5 nM or EGF 0.05-50 ng/ml, 4 days, FIG. 11
Description: Briefly, cells were detached from a T75 flask with Dissociation Solution (Sigma) and plated in fibronectin coated 96 well plates. Approximately 10,000 cells were plated per well in 0.1 ml of fully supplemented media. […] After 4 days plates were washed twice with PBS (pH 7.5), stained with crystal violet (0.5% in methanol), dried, solubilized and the optical density measured at a wavelength of 540 nm on a plate reader, essentially as described in Sugarman et al. Science 230:943-945 (1985).

## RITUXAN®: an unrelated antibody, used as negative control
[1]; FIG. 7, unconjugated control antibody
  efficacy on tumor size: no efficacy
[1]; FIG. 8, control antibody and control conjugate
  effect on tumor growth: Neither unconjugated RITUXAN® (control MAb E25) nor RITUXAN®-DM1 had any obvious effect on tumor growth

## CC(=O)O[C@H]1C(=O)[C@@]2(C)[C@H]([C@H](OC(=O)c3ccccc3)[C@]3(O)C[C@H](OC(=O)[C@H](O)[C@@H](NC(=O)c4ccccc4)c4ccccc4)C(C)=C1C3(C)C)[C@]1(OC(C)=O)CO[C@@H]1C[C@@H]2O [taxol, paclitaxel]
[2]
  reduction of tumor growth: more effective than either of the antibodies alone

## heregulin
[3]
  proliferation in response to mitogen: only the HER-5 cell line proliferated; also recorded: mitogens only for cell line HER-5
